Measured values published in paper PMC4623604, “Discovery of Small Molecules that Inhibit the Disordered Protein, p27^Kip1” (Scientific Reports, 2015).

Experiments:
[1] = biological target: T1, p27-KID mutants (Homo sapiens, UniProt P46527, Y88A); assay: 2D NMR binding mapping with p27-KID mutants
T1 construct: 6xHis (N, cleaved yes); made in house; host or cells: E. coli (pET28a)
From the text: (§1) (Fig. 7a–c); these interaction sites are all within the Cdk2-binding D2 sub-domain. […] In fact, sub-domain D2 contains eight of the nine aromatic amino acids found within p27; a ninth, F33, is found within sub-domain D1 but […] to small molecules. Group 1 molecules caused the largest CSPs for residues F87, Y88 and Y89 within sub-region D2.3 and Group 2 molecules perturbed resonances for these residues as well as for residues W60, N61 (sub-region D2.1) and E75, W76 and Q77 (sub-region D2.2).
(§2) The p27 constructs were expressed in E. Coli with an N-terminal 6xHis affinity tag after sub-cloning into pET28a (Novagen) using established procedures. […]
(§3) Screening and validation NMR experiments were performed at 298 K (25 °C) using either a Varian Inova 600 MHz spectrometer equipped with a triple resonance (HCN) room temperature gradient probe or a Bruker Avance 600 MHz spectrometer equipped with TCI cryogenic gradient probe and a SampleJet sample changer. Fragment molecules were initially analyzed as pools of five molecules dissolved at 10 mM each in DMSO-D6. […] NMR spectra were recorded for compound pools without and with protein. […] 2D ^1H-^15N TROSY-HSQC NMR experiments with ^2H/^13C/^15N-p27-D2/Cdk2/cyclin A and SJ403 have been recorded at 308 K (35 °C). […] NMR spectra were processed using Bruker Topspin software and analyzed using computer-aided resonance assignment (CARA) software.

[2] = system: p27-KID mutants; assay: 2D NMR binding mapping with p27-KID mutants; set-up: species or system human
From the text: as §1, §2, §3

T1 sequence (P46527 22-105 Y88A): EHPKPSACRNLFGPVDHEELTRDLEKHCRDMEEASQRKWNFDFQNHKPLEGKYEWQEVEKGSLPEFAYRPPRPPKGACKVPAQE

CCn1c(C)c(C)n2c3c(=O)n(C)c(=O)n(C)c3nc12 [SJ403]
CSPs with Y88 to A p27-KID mutant [1]: caused CSPs near the two W residues (W60 or W76) but not within the F87A88Y89 region | CSPs with doubly mutated p27-KID variants (W60A-W76A, W60F-W76F) [2]: only very weak CSPs within the F87YY89 aromatic cluster
